Data set [1] can be described thus: Cytotoxicity to HepG2.2.15 cells, MTT method. The class given is cell-based. As to conditions: human, HepG2.2.15 cells (HBV-transgenic human hepatoma cell line), day 8, 50% death concentration. As to the method:
(§1) Hepatitis B virus (HBV) transgenic human hepatoma carcinoma cell, HepG2.2.15 cell line, can secrete hepatitis B virus particles (containing antigen and DNA) into the supernatant when being incubated.
(§2) Under the influence of antiviral drugs, the contents of HBsAg, HBeAg and viral DNA secreted from cells into the supernatant were detected. Compared with the contents of control groups without drugs, the antiviral activity of the sample drugs can be observed. Meanwhile, the cytotoxic effect of the sample drugs can be detected. The value concentration of the sample drugs which caused 50% of the cells dead measured with MTT method was CC50. And the value concentration of the sample drugs which inhibited 50% of the secretion of HBsAg and HBeAg detected by specific ELISA kits and inhibited 50% of the viral DNA replication detected by fluorescent quantitation PCR method was IC50.
(§3) HepG2.2.15 cells were inoculated into a 96-well plate, and the sample drugs were added next day. The medium and the sample drugs with the same concentration were renewed periodically, and the supernatants were collected on the eighth day to be detected. MTT was added to the cells in the 96-well plate, and MTT dissolving solution was added after 4 hours and reacted overnight. OD570 was measured on ELISA the next day. The cytotoxicity of the sample drugs to HepG2.2.15 cells, the effect of the sample drugs on the growth of the cells, and the concentration of the sample drugs (CC50) resulting in 50% of the cells dead were estimated according to the OD values.
(Formazan colour is commonly taken as a measure of viable cells.)

The test system of data set [2] is Hepatitis B virus (HBV) DNA. Put plainly: HBV-DNA replication in HepG2.2.15 supernatant, fluorescent quantification PCR. The class given is cell-based. As to conditions: for IC50: Hepatitis B virus, 192 h, HepG2.2.15 supernatant, day 8, PCR, NA means no obvious biological activity or unable to be calculated. As to the method:
as §1, §2, §3
A suitable amount of supernatant was added to the same volume of virus extract solution, and was boiled after mixed homogenously, then centrifuged at 10000 rpm under room temperature for 5 minutes, and a suitable amount of supernatant was collected for PCR amplification. Meanwhile five HBV-DNA standard samples were set to establish a standard curve. According to the obtained viral DNA replication value, the inhibition ratios of HBV-DNA replication of each sample drug at different concentrations were calculated, and then the half inhibition rates of the sample drugs were calculated to obtain IC50. For those samples that can not be calculated for IC50 values, they can be represented by ICx and list the corresponding concentration values.

Where only a bound is given, the exact number is not on record here.

What is called CC50 is the concentration that lowers cell viability or growth by half. Lower therefore signals greater toxicity to the cells. The IC50 is the concentration needed to halve the response being measured. As for `CC(C)Cc1sc(-c2nccs2)nc1CO` [C254], in data set [1], the CC50 at 8 day is > 33.3 µM. In addition, the IC50 in data set [2] is > 33.3 µM.
In the case of `CC(=O)c1nc(-c2nccs2)sc1CC(C)C` [C266], the cytotoxic concentration (CC50) at 8 day in data set [1] is > 33.3 µM. In data set [2], the IC50 is 0.06 µM.
In the case of `CC(C)Cc1sc(-c2nccs2)nc1C(N)=O` [C267], in data set [1], the CC50 at 8 day is > 100 µM. In data set [2] (concentration at 89% inhibition, IC50 not calculable), the “DNA replication ICX: IC89” value is listed as “IC89 = 33 μM”.
Consider `CC(C)Cc1sc(-c2nccs2)nc1C(C)O` (stereo not shown) [C268-2], for which, in data set [1], the CC50 at 8 day is > 33.3 µM. Also, the IC50 in data set [2] was 0.6 µM.
With `CCOC(=O)c1nc(-c2ccccn2)oc1CC(C)C` [C274], the CC50 at 8 day in data set [1] was > 100 µM. For the same molecule, the IC50 in data set [2] is 67.6 µM.
Regarding `CCC(=O)c1nc(-c2nccs2)sc1CC(C)C` [C280-4], the CC50 at 8 day in data set [1] was > 33.3 µM. Also, the IC50 in data set [2] was 0.09 µM.
Take `CNC(=O)c1nc(-c2nccs2)sc1CC(C)C` [C281]: the CC50 at 8 day in data set [1] was > 100 µM. In data set [2] (concentration at 94% inhibition, IC50 not calculable), the “DNA replication ICX: IC94” value was “IC94 = 33 μM”.
For `CCC(O)c1nc(-c2nccs2)sc1CC(C)C` (stereo not shown) [C282-2], the CC50 at 8 day in data set [1] is > 33.3 µM. Further, the IC50 in data set [2] is 0.8 µM.
For the molecule `CCOC(=O)c1nc(-c2cccnc2)sc1CC(C)C` [C290-2], the 50% cytotoxic concentration (CC50) at 8 day in data set [1] is > 100 µM.
On the same count and under the same terms, the result for `CCOC(=O)c1nc(-c2ccncc2)sc1CC(C)C` [C290-3] reads > 100 µM.
Consider `CCOC(=O)c1nc(-c2ccccn2)sc1CC(C)C` [C290], for which the 50% cytotoxic concentration (CC50) at 8 day in data set [1] was > 100 µM. The IC50 in data set [2] was 0.14 µM.
`CC(C)Cc1sc(-c2nccs2)nc1C(=O)N(C)C` [C295-3]: in data set [1], the 50% cytotoxic concentration (CC50) at 8 day is > 100 µM. In data set [2] (concentration at 12% inhibition, IC50 not calculable), the “DNA replication ICX: IC12” value is “IC12 = 1.23 μM”.
As for `CCOC(=O)c1nc(-c2ccc(C)cc2)sc1CC(C)C` [C303-1], the CC50 at 8 day in data set [1] is > 33.3 µM. Also, the IC50 in data set [2] was 2.9 µM.
Regarding `CCOC(=O)c1nc(-c2cccc(C)c2)sc1CC(C)C` [C303-2], the cytotoxic concentration (CC50) at 8 day in data set [1] was > 33.3 µM. For the same molecule, the IC50 in data set [2] is > 33.3 µM.
For the molecule `CCOC(=O)c1nc(-c2ccccc2C)sc1CC(C)C` [C303-3], the CC50 at 8 day in data set [1] is > 33.3 µM. Also, the IC50 in data set [2] was 1.48 µM.
As to `CCOC(=O)c1nc(-c2ccc(O)cc2)sc1CC(C)C` [C305-4], in data set [1], the CC50 at 8 day is > 33.3 µM.
For `CCOC(=O)c1nc(-c2cccc(O)n2)sc1CC(C)C` [C306-2], the CC50 at 8 day in data set [1] was > 100 µM. The IC50 in data set [2] is 0.14 µM.
On the same counts, the results for `CCOC(=O)c1nc(-c2ncccc2O)sc1CC(C)C` [C306-3] are 5.67 µM and 0.14 µM.
Turning to `CCOC(=O)c1nc(-c2ccc(F)cc2)sc1CC(C)C` [C307-2], the CC50 at 8 day in data set [1] is > 33.3 µM.
Turning to `CCOC(=O)c1nc(-c2cccc(F)c2)sc1CC(C)C` [C307-3], the CC50 at 8 day in data set [1] was > 33.3 µM. Also, the IC50 in data set [2] was < 0.05 µM.
For the molecule `CCOC(=O)c1nc(-c2ccccc2F)sc1CC(C)C` [C307-4], the CC50 at 8 day in data set [1] was > 33.3 µM. The IC50 in data set [2] is 0.14 µM.
On to `CCOC(=O)c1nc(-c2ccc(OC)cc2)sc1CC(C)C` [C319-3], for which the CC50 at 8 day in data set [1] is > 33.3 µM. Further, in data set [2], the half-maximal inhibitory concentration (IC50) was 0.09 µM.
`CCOC(=O)c1nc(-c2cccc(OC)c2)sc1CC(C)C` [C319-4]: in data set [1], the CC50 at 8 day is > 33.3 µM. Besides, the IC50 in data set [2] was 0.11 µM.
As to `CCOC(=O)c1nc(-c2ccccc2OC)sc1CC(C)C` [C319-5], the CC50 at 8 day in data set [1] is > 33.3 µM. The IC50 in data set [2] was 0.04 µM.
On to `CCOC(=O)C=Cc1nc(-c2nccs2)sc1CC(C)C` [C322-2], for which the 50% cytotoxic concentration (CC50) at 8 day in data set [1] was > 33.3 µM. Besides, the IC50 in data set [2] is 0.06 µM.
`CCOC(=O)c1nc(-c2ccc3ccccc3n2)[nH]c1CC(C)C` [C323-2]: the CC50 at 8 day in data set [1] was > 100 µM.
`CCOC(=O)c1nc(-c2cccc(Cl)c2)sc1CC(C)C` [C323-3]: the CC50 at 8 day in data set [1] is > 33.3 µM.
As for `CCOC(=O)c1nc(-c2ccc3ccccc3n2)oc1CC(C)C` [C324-4], in data set [1], the CC50 at 8 day came out at 45.4 µM. Further, the IC50 in data set [2] is 11.9 µM.
`CCOC(=O)CCc1nc(-c2nccs2)sc1CC(C)C` [C324-5]: the CC50 at 8 day in data set [1] was > 33.3 µM. Further, the half-maximal inhibitory concentration (IC50) in data set [2] is 3 µM.
In the case of `CC(C)Cc1sc(-c2nccs2)nc1C(=O)OC(C)(C)C` [C324-6], in data set [1], the CC50 at 8 day was > 33.3 µM. In data set [2], the half-maximal inhibitory concentration (IC50) was 3.7 µM.
Regarding `CCOC(=O)c1nc(-c2ccc([N+](=O)[O-])cc2)sc1CC(C)C` [C334-2], in data set [1], the 50% cytotoxic concentration (CC50) at 8 day is > 33.3 µM. The IC50 in data set [2] is 1.06 µM.
Turning to `CCOC(=O)c1nc(-c2cccc([N+](=O)[O-])c2)sc1CC(C)C` [C334-3], in data set [1], the CC50 at 8 day was > 33.3 µM. Moreover, in data set [2], the IC50 is 1.2 µM.
Taken in the same sequence, the figures for `CCOC(=O)c1nc(-c2ccccc2[N+](=O)[O-])sc1CC(C)C` [C334-4] were > 33.3 µM and 1.24 µM.
In data set [1], `CC(C)Cc1sc(-c2nccs2)nc1C(=O)Nc1ccccc1` [C343] registered a CC50 at 8 day of 50 µM. Further, the “DNA replication ICX: IC19” value in data set [2] (concentration at 19% inhibition, IC50 not calculable) was “IC19 = 1.23 μM”.
Take `CCOC(=O)c1nc(-c2ncc(-c3ccccc3)s2)sc1CC(C)C` [C358]: in data set [1], the 50% cytotoxic concentration (CC50) at 8 day is > 33.3 µM. In addition, in data set [2] (concentration at 36% inhibition, IC50 not calculable), the “DNA replication ICX: IC36” value is given as “IC36 = 1.23 μM”.
`CCOC(=O)c1nc(-c2cccc([N+](=O)[O-])c2OC)sc1CC(C)C` [C364-1] displayed a CC50 at 8 day in data set [1] of 19.2 µM. Besides, the IC50 in data set [2] was 1.1 µM.
As to `CCOC(=O)c1nc(-c2ccc([N+](=O)[O-])c(OC)c2)sc1CC(C)C` [C364-2], the CC50 at 8 day in data set [1] is > 33.3 µM.
Take `CCOC(=O)c1nc(-c2ncc(Br)s2)sc1CC(C)C` [C375]: in data set [1], the CC50 at 8 day is > 33.3 µM. Moreover, the IC50 in data set [2] was > 33.3 µM.
For `CCOC(=O)c1nc(-c2ccc(NC(=O)OC(C)(C)C)cc2)sc1CC(C)C` [C404], in data set [1], the CC50 at 8 day is > 33.3 µM.
Consider `COC(=O)c1nc(-c2nccs2)sc1CC(C)C` [W28], for which, in data set [1], the 50% cytotoxic concentration (CC50) at 8 day was > 333 µM. For the same molecule, the 50% inhibitory concentration (IC50) in data set [2] was 2.4 µM.
Consider `CCCCc1sc(-c2nccs2)nc1C(=O)O` [Wang268], for which the CC50 at 8 day in data set [1] is 257 µM. In data set [2] (concentration at 53% inhibition, IC50 not calculable), the “DNA replication ICX: IC53” value was “IC53 = 125 μM”.
In data set [1], `O=C(O)c1nc(-c2nccs2)sc1Cc1ccccc1` [Wang302] displayed a CC50 at 8 day of 192 µM. For the same molecule, the IC50 in data set [2] was 63.1 µM.

(Values after patent US8653115B2, “Heterocyclic non-nucleoside compounds, their preparation, pharmaceutical composition and their use as antiviral agents” (Shanghai Institute of Materia Medica, Chinese Academy of …, priority 2006, dated 2014).)
